Test results reported in paper PMC11656708, “PHP-Family Diesterase from Novosphingobium with Broad Specificity and High Catalytic Efficiency against Organophosphate Flame-Retardant Derived Diesters” (Biochemistry, 2024).
Read-outs that look alike come from different tables or passages of the source.

Columns and labels:
No-PDE [1] = test system: T1, No-PDE; assay: UV/vis Michaelis-Menten kinetics; assay type: biochemical, Novosphingobium sp. EMRT-2
T1 construct: synthetic gene, recombinant, purified to homogeneity; trinuclear zinc site
Description: UV/vis Michaelis-Menten kinetics on No-PDE

Sb-PDE [2] = test system: T2, Sb-PDE; assay: UV/vis Michaelis-Menten kinetics; assay type: biochemical, Sphingobium sp. TCM1
T2 construct: synthetic gene, recombinant, purified to homogeneity; trinuclear zinc site
Description: UV/vis Michaelis-Menten kinetics on Sb-PDE

No-PDE [3] = test system: T1, No-PDE; assay: steady-state kinetics; assay type: biochemical, Novosphingobium sp. EMRT-2
Description: steady-state kinetics on No-PDE

Sb-PDE [4] = test system: T2, Sb-PDE; assay type: biochemical, Sphingobium sp. TCM1
Description: steady-state kinetics on Sb-PDE

O=[N+]([O-])c1ccc(OP(=O)(O)Oc2ccc([N+](=O)[O-])cc2)cc1 [compound 1, bis-p-nitrophenyl phosphate]
Km (No-PDE [1]): 620 µM
Km (Sb-PDE [2]): 140 µM

O=P(O)(Oc1ccccc1)Oc1ccccc1 [compound 2, diphenyl phosphate]
Km (No-PDE [1]): 2300 µM
Km (Sb-PDE [2]): 900 µM

O=[N+]([O-])c1ccc(OP(=O)(O)O)cc1 [compound 11, p-nitrophenyl phosphate]
Km (No-PDE [3]): 1400 µM
Km (Sb-PDE [4]): 140 µM

O=P(O)(O)Oc1ccccc1 [compound 12, phenyl phosphate]
Km (Sb-PDE [4]): 1400 µM
